Drawing on patent publication US8618289B2 (Ambit Biosciences Corporation, priority 2008, dated 2013), this text covers IC50 and Kd for nine compounds.

The subject of test [1] is MEK1 phosphorylation in the A375 human melanoma cell line. As to the kind of experiment: cells. The following applies: A-375, read-out: pMEK IC50.
In test [2] the target is RAF kinases (Homo sapiens, UniProt P15056, V600E). As to the kind of experiment: biochemical.
The target in test [3] is RAF kinases (Homo sapiens, UniProt P04049). The following applies: read-out: RAF1 Kd; RAF1.
RAF kinases (Homo sapiens, UniProt P04049), sequence (P04049 whole entry): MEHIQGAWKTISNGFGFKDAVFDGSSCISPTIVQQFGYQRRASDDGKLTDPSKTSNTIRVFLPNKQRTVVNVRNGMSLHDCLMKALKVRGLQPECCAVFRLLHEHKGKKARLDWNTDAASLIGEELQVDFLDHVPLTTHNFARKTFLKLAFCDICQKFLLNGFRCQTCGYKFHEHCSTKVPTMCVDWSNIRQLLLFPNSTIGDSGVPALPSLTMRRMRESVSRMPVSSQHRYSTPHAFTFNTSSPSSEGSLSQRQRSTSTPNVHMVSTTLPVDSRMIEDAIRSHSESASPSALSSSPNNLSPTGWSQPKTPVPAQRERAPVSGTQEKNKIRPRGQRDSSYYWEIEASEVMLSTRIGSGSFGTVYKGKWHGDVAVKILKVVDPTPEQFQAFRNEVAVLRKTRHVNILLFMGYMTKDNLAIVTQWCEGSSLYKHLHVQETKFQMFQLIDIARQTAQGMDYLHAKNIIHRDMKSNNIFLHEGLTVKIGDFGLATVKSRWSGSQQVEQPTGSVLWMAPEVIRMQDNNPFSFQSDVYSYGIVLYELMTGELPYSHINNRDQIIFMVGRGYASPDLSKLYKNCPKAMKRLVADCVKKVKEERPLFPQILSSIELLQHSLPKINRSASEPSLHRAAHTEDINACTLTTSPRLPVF
The target of test [4] is RAF kinases (Homo sapiens, UniProt P15056). The note with it: read-out: BRAF WT Kd; BRAF WT.
RAF kinases (Homo sapiens, UniProt P15056), sequence (P15056 whole entry): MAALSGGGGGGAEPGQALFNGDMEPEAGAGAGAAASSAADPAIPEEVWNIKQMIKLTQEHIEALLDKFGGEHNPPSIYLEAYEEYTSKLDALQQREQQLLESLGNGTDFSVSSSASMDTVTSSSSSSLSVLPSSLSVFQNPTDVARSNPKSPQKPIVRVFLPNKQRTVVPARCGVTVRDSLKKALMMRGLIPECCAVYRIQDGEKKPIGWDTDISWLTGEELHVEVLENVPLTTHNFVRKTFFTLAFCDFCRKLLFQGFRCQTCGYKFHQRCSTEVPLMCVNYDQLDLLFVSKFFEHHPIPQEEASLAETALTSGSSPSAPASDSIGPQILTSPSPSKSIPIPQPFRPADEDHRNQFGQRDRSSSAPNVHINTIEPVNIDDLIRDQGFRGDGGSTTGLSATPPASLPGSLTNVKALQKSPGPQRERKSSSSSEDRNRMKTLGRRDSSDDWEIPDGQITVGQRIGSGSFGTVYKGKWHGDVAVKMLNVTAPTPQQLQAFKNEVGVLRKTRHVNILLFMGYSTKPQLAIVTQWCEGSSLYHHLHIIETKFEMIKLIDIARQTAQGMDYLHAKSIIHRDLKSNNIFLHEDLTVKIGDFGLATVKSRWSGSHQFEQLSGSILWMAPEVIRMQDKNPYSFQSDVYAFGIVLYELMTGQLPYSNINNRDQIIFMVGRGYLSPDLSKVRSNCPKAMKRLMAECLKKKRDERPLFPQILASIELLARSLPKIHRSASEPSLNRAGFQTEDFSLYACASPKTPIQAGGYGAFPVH

For orientation: IC50 means the concentration needed to halve the response being measured. The term Kd denotes the constant that tells how readily two partners part at equilibrium.

RAF kinases (Homo sapiens, UniProt P15056, V600E), sequence (P15056 whole entry V600E): as the sequence (P15056 whole entry) above, with V600E counted along it

Take `COc1cc2ncnc(Sc3cccc(NC(=O)Nc4cc(C(C)(C)C)nn4-c4ccc(C)cc4)c3)c2cc1OC` [Ex 275, 1-(3-tert-butyl-1-p-tolyl-1H-pyrazol-5-yl)-3-(3-(6,7-dimethoxyquinazolin-4-ylthio)phenyl)urea]: the IC50 in test [1] is less than 0.25 µM. Further, the Kd is 0.25 to 0.5 µM on RAF kinases [2], greater than 1 µM on RAF kinases [3] and greater than 1 µM on RAF kinases [4].
As to `COc1cc2ncnc(Sc3cccc(NC(=O)Nc4cc(C(C)(C)C)nn4-c4cccc(C(F)(F)F)c4)c3)c2cc1OC` [Ex 380, 1-(3-tert-butyl-1-(3-(trifluoromethyl)phenyl)-1H-pyrazol-5-yl)-3-(3-(6,7-dimethoxyquinazolin-4-ylthio)phenyl) urea], the IC50 in test [1] was less than 0.25 µM. Moreover, the equilibrium dissociation constant (Kd) at RAF kinases [2] was 0.25 to 0.5 µM; at RAF kinases [3] it was greater than 1 µM; at RAF kinases [4] it was greater than 1 µM.
Take `COc1ccc(-n2nc(C(C)(C)C)cc2NC(=O)Nc2cccc(Sc3ncnc4cc(OC)c(OC)cc34)c2)cc1` [Ex 362, 1-(3-tert-butyl-1-(4-methoxyphenyl)-1H-pyrazol-5-yl)-3-(3-(6,7-dimethoxyquinazolin-4-ylthio)phenyl)urea]: the IC50 in test [1] is less than 0.25 µM. Also, the results for the Kd on RAF kinases [2], on RAF kinases [3] and at RAF kinases [4] were 0.5 to 1 µM, greater than 1 µM and greater than 1 µM, respectively.
Consider `COc1cc2ncnc(Oc3cccc(NC(=O)Nc4cc(C(C)(C)C)nn4-c4cccc(C)c4)c3)c2cc1OC` [Ex 285, 1-(3-tert-butyl-1-m-tolyl-1H-pyrazol-5-yl)-3-(3-(6,7-dimethoxyquinazolin-4-yloxy)phenyl)urea], for which the half-maximal inhibitory concentration (IC50) in test [1] is less than 0.25 µM. Besides, the Kd at RAF kinases [2] is 0.25 to 0.5 µM; at RAF kinases [3] it was greater than 1 µM; at RAF kinases [4] it was greater than 1 µM.
Regarding `COc1cc2ncnc(Sc3cccc(NC(=O)Nc4cc(C(C)(C)C)nn4-c4cccc(F)c4)c3)c2cc1OC` [Ex 360, 1-(3-tert-butyl-1-(3-fluorophenyl)-1H-pyrazol-5-yl)-3-(3-(6,7-dimethoxyquinazolin-4-ylthio)phenyl)urea], the concentration for half-maximal inhibition (IC50) in test [1] is less than 0.25 µM. In addition, the Kd at RAF kinases [2] was 0.25 to 0.5 µM; at RAF kinases [3], greater than 1 µM; on RAF kinases [4], greater than 1 µM.
On to `COc1cc2ncnc(Oc3cc(NC(=O)Nc4cc(C(C)(C)C)nn4-c4ccccc4)c(F)cc3F)c2cc1OC` [Ex 273, 1-(3-tert-butyl-1-phenyl-1H-pyrazol-5-yl)-3-(5-(6,7-dimethoxyquinazolin-4-yloxy)-2,4-difluorophenyl)urea], for which the IC50 in test [1] was less than 0.25 µM. Besides, the Kd on RAF kinases [2] is 0.5 to 1 µM; at RAF kinases [3], greater than 1 µM; at RAF kinases [4] it was greater than 1 µM.
`COc1cc2ncnc(Oc3cccc(NC(=O)Nc4cc(C(C)(C)C)nn4-c4ccc(C)cc4)c3C)c2cc1OC` [Ex 288, 1-(3-tert-butyl-1-p-tolyl-1H-pyrazol-5-yl)-3-(3-(6,7-dimethoxyquinazolin-4-yloxy)-2-methylphenyl)urea]: the IC50 in test [1] was less than 0.25 µM. In addition, the Kd on RAF kinases [2] is 0.25 to 0.5 µM; on RAF kinases [3], greater than 1 µM; at RAF kinases [4] it was greater than 1 µM.
As for `COc1cc2ncnc(Oc3cccc(NC(=O)Nc4cc(C(C)(C)C)nn4-c4cccc(C(F)(F)F)c4)c3)c2cc1OC` [Ex 379, 1-(3-tert-butyl-1-(3-(trifluoromethyl)phenyl)-1H-pyrazol-5-yl)-3-(3-(6,7-dimethoxyquinazolin-4-yloxy)phenyl)urea], in test [1], the IC50 was less than 0.25 µM. Also, the Kd was 0.25 to 0.5 µM at RAF kinases [2], greater than 1 µM at RAF kinases [3] and greater than 1 µM on RAF kinases [4].
With `COCCOc1cc2ncnc(Sc3cccc(NC(=O)Nc4cc(C(C)(C)C)nn4-c4cccc(C)c4)c3)c2cc1OC` [Ex 287, 1-(3-tert-butyl-1-m-tolyl-1H-pyrazol-5-yl)-3-(3-(6-methoxy-7-(2-methoxyethoxy)quinazolin-4-ylthio)phenyl)urea], the IC50 in test [1] was less than 0.25 µM. Besides, the Kd at RAF kinases [2] was 0.5 to 1 µM; on RAF kinases [3], greater than 1 µM; on RAF kinases [4], greater than 1 µM.
